According to patent US12583861B2, “Derivatives of imidazo[4,5-d]pyridazine, their preparation and their therapeutic application” (SANOFI, priority 2021, dated 2026):
Where a name gives a salt, the structure may show the parent alone.

Assays:
[1] = biological target: T1, human TLR8 (Homo sapiens, UniProt Q9NR97); assay: HEK-Blue hTLR8 reporter cell assay (SEAP, NF-kB/AP-1) for stimulation of human TLR8; type: cell-based; conditions: HEK-Blue hTLR8 cells; for EC50: 24 h incubation, SEAP readout, read-out: TLR8_EC50; for activation at 20 µM: 24 h, at 20000 nM
T1 construct: host or cells: HEK293 (HEK-Blue hTLR8)
T1 sequence (Q9NR97 27-1041): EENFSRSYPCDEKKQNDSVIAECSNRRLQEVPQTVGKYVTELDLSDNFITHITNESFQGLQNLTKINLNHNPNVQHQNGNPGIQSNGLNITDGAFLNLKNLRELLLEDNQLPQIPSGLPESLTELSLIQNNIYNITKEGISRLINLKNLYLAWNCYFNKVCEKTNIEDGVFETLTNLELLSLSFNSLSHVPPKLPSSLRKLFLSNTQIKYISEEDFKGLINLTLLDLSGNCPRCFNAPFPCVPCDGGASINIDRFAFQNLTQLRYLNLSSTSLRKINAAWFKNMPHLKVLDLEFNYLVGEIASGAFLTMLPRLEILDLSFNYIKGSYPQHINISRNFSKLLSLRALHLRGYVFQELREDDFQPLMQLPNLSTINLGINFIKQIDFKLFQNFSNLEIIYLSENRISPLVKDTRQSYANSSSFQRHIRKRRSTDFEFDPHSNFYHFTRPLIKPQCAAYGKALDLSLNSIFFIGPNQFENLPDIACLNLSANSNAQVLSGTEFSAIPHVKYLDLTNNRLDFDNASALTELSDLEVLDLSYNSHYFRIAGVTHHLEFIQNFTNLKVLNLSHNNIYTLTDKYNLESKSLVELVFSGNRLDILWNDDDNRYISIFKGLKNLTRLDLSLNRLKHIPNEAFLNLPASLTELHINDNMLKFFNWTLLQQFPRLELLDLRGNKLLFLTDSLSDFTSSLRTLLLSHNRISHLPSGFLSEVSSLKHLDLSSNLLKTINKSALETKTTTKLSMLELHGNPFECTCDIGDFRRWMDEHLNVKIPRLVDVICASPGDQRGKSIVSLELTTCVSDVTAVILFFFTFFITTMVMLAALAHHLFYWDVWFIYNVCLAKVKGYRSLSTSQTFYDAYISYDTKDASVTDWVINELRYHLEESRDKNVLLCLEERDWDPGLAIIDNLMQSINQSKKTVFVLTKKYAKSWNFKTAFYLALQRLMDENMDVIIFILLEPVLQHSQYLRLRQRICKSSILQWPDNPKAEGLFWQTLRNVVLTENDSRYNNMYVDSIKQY
Outline: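 Stimulation is quantified as secreted alkaline phosphatase in supernatant using QUANTI-Blue™ substrate. Reporter HEK293 line co-transfected with hTLR8 and SEAP under an IFN-β minimal promoter with five NF-κB/AP-1 sites; 3.10E4 cells/well, 18 to 24 h pre-culture at 37° C. before compounds.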

[2] = biological target: T2, human TLR7 (Homo sapiens, UniProt Q9NYK1); assay: HEK-Blue hTLR7 reporter cell assay (SEAP, NF-kB/AP-1) for stimulation of human TLR7; type: cell-based; conditions: HEK-Blue hTLR7 cells; for EC50: 24 h incubation, SEAP readout, read-out: TLR7_EC50
T2 construct: host or cells: HEK293 (HEK-Blue hTLR7)
T2 sequence (Q9NYK1 27-1049): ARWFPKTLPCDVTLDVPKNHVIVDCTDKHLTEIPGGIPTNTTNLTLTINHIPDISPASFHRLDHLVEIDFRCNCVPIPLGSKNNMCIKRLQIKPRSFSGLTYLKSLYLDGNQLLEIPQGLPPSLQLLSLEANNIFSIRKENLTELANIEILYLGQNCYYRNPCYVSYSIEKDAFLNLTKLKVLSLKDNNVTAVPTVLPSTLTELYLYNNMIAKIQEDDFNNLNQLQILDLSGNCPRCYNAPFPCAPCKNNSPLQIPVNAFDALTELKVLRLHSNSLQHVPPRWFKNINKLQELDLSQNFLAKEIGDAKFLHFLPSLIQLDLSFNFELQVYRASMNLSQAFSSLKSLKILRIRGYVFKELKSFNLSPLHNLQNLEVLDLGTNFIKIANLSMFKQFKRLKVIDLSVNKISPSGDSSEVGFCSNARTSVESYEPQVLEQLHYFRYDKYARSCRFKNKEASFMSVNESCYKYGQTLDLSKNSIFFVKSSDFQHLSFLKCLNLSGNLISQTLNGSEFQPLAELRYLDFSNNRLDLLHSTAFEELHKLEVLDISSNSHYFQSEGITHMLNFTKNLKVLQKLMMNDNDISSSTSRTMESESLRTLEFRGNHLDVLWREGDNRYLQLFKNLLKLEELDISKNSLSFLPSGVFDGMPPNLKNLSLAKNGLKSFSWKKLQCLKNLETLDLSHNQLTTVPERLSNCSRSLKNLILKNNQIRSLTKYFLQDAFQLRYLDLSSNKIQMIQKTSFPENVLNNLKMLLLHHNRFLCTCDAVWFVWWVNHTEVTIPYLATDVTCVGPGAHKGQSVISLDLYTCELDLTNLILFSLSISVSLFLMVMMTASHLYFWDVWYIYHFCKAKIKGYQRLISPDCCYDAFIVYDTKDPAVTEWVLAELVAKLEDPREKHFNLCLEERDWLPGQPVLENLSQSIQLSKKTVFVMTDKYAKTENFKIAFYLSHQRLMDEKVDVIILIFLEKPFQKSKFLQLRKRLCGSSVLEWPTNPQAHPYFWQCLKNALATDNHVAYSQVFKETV
Outline: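 Activity expressed as EC50 for half-maximal SEAP induction. Compounds, serially diluted 3-fold from 20 to 0.01 μM, were incubated 24 h at 37 °C, 5% CO2 with HEK-Blue hTLR7 reporter cells (3.10E4/well, plated 18–24 h earlier); supernatant developed with QUANTI-Blue.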

Structure (SMILES) | EC50 [1] [µM] | EC50 [2] [µM] | activation at 20 µM [1] [%] | activation at 20 µM ([2]; 24 h, at 20000 nM) [%]
CCCCc1nc2c(N)nnc(N3CCCC3)c2n1C[C@H]1CC[C@H](N)CC1 [Compound 143, 3-[(4-aminocyclohexyl)methyl]-2-butyl-4-pyrrolidin-1-yl-imidazo[4,5-d]pyridazin-7-amine] | > 20 | 11 | – | –
CCCCc1nc2c(N)nnc(NCc3ccc(CN)cc3)c2n1C [Compound 87, N7-(4-(aminomethyl)benzyl)-2-butyl-1-methyl-1H-imidazo[4,5-d]pyridazine-4,7-diamine] | > 20 | 8.52 | – | –
CCCCc1nc2c(N)nnc(/C=C/C(C)C)c2n1C[C@H]1CC[C@H](CN)CC1 [Compound 137, 1-(((1R,4R)-4-(aminomethyl)cyclohexyl)methyl)-2-butyl-7-((E)-3-methylbut-1-en-1-yl)-1H-imidazo[4,5-d]pyridazin-4-amine] | > 20 | 0.145 | – | –
CCCCc1nc2c(N)nnc(OC(C)CC)c2n1Cc1ccc(OC)cc1 (centres unmarked) [Compound 7, 7-(sec-butoxy)-2-butyl-1-(4-methoxybenzyl)-1H-imidazo[4,5-d]pyridazin-4-amine] | 2.1 | 0.046 | – | –
CCCCc1nc2c(N)nnc(O)c2n1Cc1ccc(OC)cc1 [Compound 93, 4-amino-2-butyl-1-(4-methoxybenzyl)-1H-imidazo[4,5-d]pyridazin-7-ol] | – | > 20 | 17 | –
CCCCc1nc2c(N)nnc(SC(C)C)c2[nH]1 [Compound 99, 2-butyl-7-(isopropylthio)-1H-imidazo[4,5-d]pyridazin-4-amine] | – | 13.6 | 18 | –
CCCCc1nc2c(N)nnc(OC(C)C)c2n1Cc1ccc(CNCCOCCOCCOCCOCCOCCOC)cc1 [Compound 105, 2-butyl-4-isopropoxy-3-[[4-[[2-[2-[2-[2-[2-(2-methoxyethoxy)ethoxy]ethoxy]ethoxy]ethoxy]ethylamino]methyl]phenyl]methyl]imidazo[4,5-d]pyridazin-7-amine] | > 20 | 0.114 | – | –
CCCCc1nc2c(N)nnc(N3CCCC3)c2n1Cc1ccc(CN)cc1 [Compound 134, 1-(4-(aminomethyl)benzyl)-2-butyl-7-(pyrrolidin-1-yl)-1H-imidazo[4,5-d]pyridazin-4-amine] | > 20 | 0.274 | – | –
CCCCc1nc2c(N)nnc(OC(C)C)c2n1Cc1ccc(CNC(=O)OCc2ccc(OC)cc2)cc1 [Compound 112, 4-methoxybenzyl (4-((4-amino-2-butyl-7-isopropoxy-1H-imidazo[4,5-d]pyridazin-1-yl)methyl)benzyl)carbamate] | > 20 | 0.248 | – | –
CCCCc1nc2c(N)nnc(-c3cc[nH]c3)c2n1C[C@H]1CC[C@H](N)CC1 [Compound 141, 1-(((1R,4R)-4-aminocyclohexyl)methyl)-2-butyl-7-(1H-pyrrol-3-yl)-1H-imidazo[4,5-d]pyridazin-4-amine] | – | – | 19.6 | 26.8
CCCCc1nc2c(N)nnc(OC(C)C)c2n1Cc1ccc(C#N)cn1 [Compound 27, 6-((4-amino-2-butyl-7-isopropoxy-1H-imidazo[4,5-d]pyridazin-1-yl)methyl)nicotinonitrile] | > 20 | 2.1 | – | –

Continued by falling EC50 [2], values first:

EC50 [1] [µM] | EC50 [2] [µM] | activation at 20 µM [1] [%] | activation at 20 µM ([2]; 24 h, at 20000 nM) [%] | Structure (SMILES)
12.7 | 10.6 | – | – | CCCCc1nc2c(N)nnc(N(C)Cc3ccccc3)c2n1C [Compound 90, N7-benzyl-2-butyl-N7,1-dimethyl-1H-imidazo[4,5-d]pyridazine-4,7-diamine]
> 20 | 9.71 | – | – | CCCCc1nc2c(N)nnc(OC(C)C)c2n1CCN1CCNCC1 [Compound 79, 2-butyl-7-isopropoxy-1-(2-(piperazin-1-yl)ethyl)-1H-imidazo[4,5-d]pyridazin-4-amine]
> 20 | 7.74 | – | – | CCCCc1nc2c(N)nnc(OC(C)C)c2n1CCC1CCNCC1 [Compound 78, 2-butyl-7-isopropoxy-1-(2-(piperidin-4-yl)ethyl)-1H-imidazo[4,5-d]pyridazin-4-amine]
> 20 | 4.39 | – | – | CCCCc1nc2c(N)nnc(OC(C)C)c2n1CCCCNC1CS(=O)(=O)C1 [Compound 152, 2-butyl-3-[4-[(1,1-dioxothietan-3-yl)amino]butyl]-4-isopropoxy-imidazo[4,5-d]pyridazin-7-amine]
> 20 | 0.729 | – | – | CCCCc1nc2c(N)nnc(OC(C)C)c2n1Cc1ccc(CNCCOCCOCCOCCOCCOCCOCCOCCOC)cc1 [Compound 122, 2-butyl-4-isopropoxy-3-[[4-[[2-[2-[2-[2-[2-[2-[2-(2-methoxyethoxy)ethoxy]ethoxy]ethoxy]ethoxy]ethoxy]ethoxy]ethylamino]methyl]phenyl]methyl]imidazo[4,5-d]pyridazin-7-amine di2,2,2-trifluoroacetate]
> 20 | 0.717 | – | – | CCCc1nc2c(N)nnc(OC(C)C)c2n1Cc1ccc(CN)cc1 [Compound 158, 1-(4-(aminomethyl)benzyl)-7-isopropoxy-2-propyl-1H-imidazo[4,5-d]pyridazin-4-amine]
14.7 | 0.345 | – | – | CCCCc1nc2c(N)nnc(OC(C)C)c2n1Cc1ccc(CN(C(C)=O)C2CS(=O)(=O)C2)cc1 [Compound 38, N-(4-((4-amino-2-butyl-7-isopropoxy-1H-imidazo[4,5-d]pyridazin-1-yl)methyl)benzyl)-N-(1,1-dioxidothietan-3-yl)acetamide]
> 20 | 0.317 | – | – | CCCCc1nc2c(N)nnc(OC(C)C)c2n1Cc1ccc(CNC2CS(=O)(=O)C2)cc1 [Compound 37, 3-((4-((4-amino-2-butyl-7-isopropoxy-1H-imidazo[4,5-d]pyridazin-yl)methyl)benzyl)amino)thietane 1,1-dioxide]
> 20 | 0.145 | – | – | CCCCc1nc2c(N)nnc(OCCC)c2n1Cc1ccc(OC)cc1 [Compound 5, 2-butyl-1-(4-methoxybenzyl)-7-propoxy-1H-imidazo[4,5-d]pyridazin-4-amine]
0.382 | 0.122 | – | – | CCCCc1nc2c(N)nnc(OC(C)C)c2n1Cc1cccc(CNC2CCC2)c1 [Compound 126, 2-butyl-1-(3-((cyclobutylamino)methyl)benzyl)-7-isopropoxy-1H-imidazo[4,5-d]pyridazin-4-amine dihydrochloride salt]
1.49 | 0.011 | – | – | CCCCc1nc2c(N)nnc(OC(C)C)c2n1Cc1ccc(CNC)cc1 [Compound 118, 2-butyl-7-isopropoxy-1-(4-((methylamino)methyl)benzyl)-1H-imidazo[4,5-d]pyridazin-4-amine]
